Consider three molecules from paper PMC11761228, “Cinnamic Acid Compounds (p-Coumaric, Ferulic, and p-Methoxycinnamic Acid) as Effective Antibacterial Agents Against Colistin-Resistant Acinetobacter baumannii” (Antibiotics, 2025).

≈ marks a conversion by molar mass, not a printed value. Entries after “also recorded” stand apart in the source; their conditions may differ. Where two headings read alike, the source gives them in different places.

Series [1] has as its system HUVEC-originated ECV304 cells. Conditions: ref 72 (Kong et al.); cited from earlier work.
In the next series the test system is Bacillus subtilis. Conditions: cited from earlier work.
The subject of another series is E. coli. Conditions: cited from earlier work.
For series [2], the system named is Vero cells. Description: CCK-8 cell viability assay. The format is cell-based, African green monkey. Particulars: 24 h; for Cytotoxicity (doses with cytotoxic effects): 0.78125–200 μg/mL. Here is the method: (§1) 293T [HEK-293] (ATCC® CRL-1573), HUVEC (ATCC CRL-1730 ™, human umbilical vein endothelial cells) and Vero (ATCC® CCL-81™, African green monkey kidney epithelial cells) cells were used in this study. Cells were cultured in RPMI-1640 medium supplemented with 10% fetal bovine serum, 0.1 mM non-essential amino acids, […], 2 mM L-glutamine, and 10 μg/mL gentamicin in a humidified atmosphere of 5% CO2, 95% air at 37 °C. After growing to approximately 80% confluence, the cells were detached with 0.25% (w/v) trypsin-EDTA and then subcultured. The cells were stored in a deep freezer at −80 °C in a solution prepared with 95% medium and 5% DMSO.
(§2) Cell viability was assessed according to the manufacturer’s protocol using a Cell Counting Kit-8 (CCK-8) (KTA1020, Abbkine, Atlanta, GA, USA). The assay is based on the reduction of 2-(2-methoxy-4-nitrophenyl)-3-(4-nitrophenyl)-5-(2,4-disulfophenyl)-2H-tetrazolium monosodium salt (WST-8) by cellular mitochondrial dehydrogenase. Cells were seeded in 96-well plates at a final concentration of 5 × 10^3 cells/well in 100 μL complete culture medium and were allowed to attach for 24 h. […] Immediately after the treatment, cell viability in a single column was determined and recorded as time zero (T0). The plain medium with 1% FBS was used as a negative control, whereas ethanol was used as solvent control. Each treatment was performed in four well replicates. At the end of the incubation, the medium was gently aspirated to terminate the experiment, a total volume of 10 μL (5 mg/mL) of CCK-8 solution was added to each well and further incubated under the same conditions for 4 h. The absorbances at 450 nm were measured in a microplate reader (Thermo Labsystem, Waltham, MA, USA), using wells without cells as background. The sample readings were calculated by subtracting the average of background absorbances. The half-maximal inhibitory concentration (IC50) of each extract was derived by a nonlinear regression model (curve-fit) based on a sigmoidal dose response curve (variable slope) and was computed using Graph-Pad Prism, version 4.00 (Graph-Pad Software, San Diego, CA, USA). Cell viability was calculated using the following formula: Cell viability (%) = (ODtreatment − ODblank)/(ODcontrol − ODblank) × 100% [78].
For orientation: Tetrazolium assays rely on reduction of a dye to a coloured formazan, in cell work by metabolically active cells.

The subject of another series is 293T cells. Conditions: 24 h, tested range 0.78–200 μg/mL.
The subject of a further series is Streptococcus pneumoniae. Set-up: method as in ref 35 (Lou et al., 2012). Particulars: ref 35 (Lou et al., 2012); cited from earlier work.
The next series relates to Shigella dysenteriae. Conditions: ref 35 (Lou et al., 2012); cited from earlier work.
Another series deals with Salmonella typhimurium. Set-up: method as in ref 35 (Lou et al., 2012). Particulars: ref 35 (Lou et al., 2012); cited from earlier work.
Another series relates to S. aureus. Conditions: cited from earlier work.
Series [3] relates to Vero cells. Conditions: cited from earlier work; for IC50 (cytotoxic effects): after 48 h, ref 70 (Sevimli-Gur and Yesil-Celiktas); for IC50: read-out: IC50 (cytotoxicity), 24 h of incubation, 5 mM maximum tested dose, ref 69 (Saenglee et al.).
The test system of a further series is HUVEC cells. Description: CCK-8 cell viability assay. Particulars: 0.78125–200 μg/mL, 24 h. In kind it is cell-based, human. Here is the method:
as §1
as §2, with “The half-maximal inhibitory concentration (IC50) of each extract was derived by a nonlinear regression model (curve-fit) based on a sigmoidal dose response curve (variable slope) and was computed using Graph-Pad Prism, version 4.00 (Graph-Pad Software, San Diego, CA, USA).” left out

A further series concerns COLR-Ab4 isolate. Description: Scanning electron microscopy of cell morphology. In kind it is cell-based, Acinetobacter baumannii. Conditions: COLR-Ab4, MIC concentrations, 3 h. As to the method: To examine the potential impact of the antimicrobial agents on the cell morphology of the COLR-Ab4 isolate, SEM studies were carried out according to the method Bendali et al. (2008), with minor modifications. […] Bacteria incubated without treatment with agents were used as controls. After incubation, the suspension was centrifuged for 10 min at 4000× g. The bacteria were washed twice with 0.1 M phosphate-buffered solution (PBS, pH 7.0). The pellet was fixed in 2.5% glutaraldehyde solution and kept for at 4 °C for 2 h. After washing the bacteria again twice with PBS, the sample was fixed in 1% osmium tetroxide solution for 1 h. Then, the samples were dehydrated through suspension in increasing concentrations of ethanol (30, 50, 70, 80, 90, and 100%) for 10 min each. The ethanol was then replaced by 100% acetone. Finally, the samples were fixed on an SEM support, coated with gold/palladium using sputtering in a vacuum, and examined using SEM (Zeiss LEO 1430, Cambridge, UK).

The test system of series [4] is biofilm production of A. baumannii isolates. Set-up: method as in ref 51 (Mumtaz et al., 2023). Conditions: ref 51 (Mumtaz et al., 2023); cited from earlier work.
In another series the test system is A. baumannii isolates. Particulars: various A. baumannii isolates; ref 28 (Ibitoye and Ajiboye, 2019); cited from earlier work.
Another series relates to A. baumannii strains. Particulars: three A. baumannii isolates; cited from earlier work.
For another series, the system named is Micrococcus luteus. Further details: method as in ref 29 (Nakazono et al., 2006). Particulars: ref 29 (Nakazono et al., 2006); cited from earlier work.
A further series has as its system Salmonella enteritidis. Set-up: method as in ref 29 (Nakazono et al., 2006). Conditions: ref 29 (Nakazono et al., 2006); cited from earlier work.

One may read the MIC as the lowest concentration found to suppress growth. The IC50 is the midpoint of a concentration-inhibition curve. Regarding `O=C(O)/C=C/c1ccc(O)cc1` [p-CA, p-coumaric acid], the “Concentration shown to induce cytotoxicity” value in series [1] is 5000 µM. Moreover, the “Concentrations with no significant effects on the cell viability” value in series [1] is not above 2500 µM. Moreover, the MIC is 20 µg/mL (≈ 122 µM) in the series with Bacillus subtilis (ref 35 (Lou et al., 2012)); 20 µg/mL (≈ 122 µM) with E. coli (ref 35 (Lou et al., 2012)); 10 µg/mL (≈ 60.9 µM) in the series with Streptococcus pneumoniae; 20 µg/mL (≈ 122 µM) in the series on Shigella dysenteriae; 20 µg/mL (≈ 122 µM) with Salmonella typhimurium; 80 µg/mL (≈ 487 µM) in the series on S. aureus (ref 35 (Lou et al., 2012)). For the same molecule, the “Cytotoxicity (doses with cytotoxic effects)” value in the series on Vero cells [2] is “no cytotoxic effects; also recorded: did not exhibit cytotoxic effects”; in the series on HUVEC cells it was “cytotoxicity in HUVEC cells at concentrations of 200 μg/mL (p < 0.01), 100 μg/mL (p < 0.05), and 50 μg/mL (p < 0.05); also recorded: cytotoxic at 200 (p < 0.01), 100 (p < 0.05), and 50 (p < 0.05) μg/mL”. Besides, the IC50 value entry in the series with Vero cells [2] (tested range 0.78–200 μg/mL) and in the series with 293T cells was “indeterminate” throughout. Moreover, in the series on Vero cells [3], the “IC50 (cytotoxic effects)” value was 163 ± 0.3 µg/mL (≈ 993 µM). In addition, in the series with Vero cells [3], the IC50 was more than 5 mM. Also, the “Cell morphology by SEM” value with COLR-Ab4 isolate is “certain morphological changes in bacterial cells”.
In the case of `COc1cc(/C=C/C(=O)O)ccc1O` [FA, ferulic acid], the “Inhibition of biofilm production” value in [4] is 49–69%. Further, the “Combination effect with quinolone-based antibiotics in words” value with A. baumannii isolates is recorded as “synergistic effect”. Moreover, the “Cytotoxicity (doses with cytotoxic effects)” value in the series on Vero cells [2] is “no cytotoxic effects; also recorded: did not exhibit any cytotoxic effect”; in the series with HUVEC cells it was “did not induce cytotoxic effects; also recorded: did not exhibit any cytotoxic effect”. Also, in the series with A. baumannii strains, the minimum inhibitory concentration (MIC) was 12.5 µg/mL (≈ 64.4 µM). The “IC50 (cytotoxic effects)” value with Vero cells [3] is 134 ± 0.8 µg/mL (≈ 690 µM). The IC50 with Vero cells [3] is more than 5 mM. Moreover, the “Cell morphology by SEM” value with COLR-Ab4 isolate is listed as “certain morphological changes in bacterial cells”.
In the case of `COc1ccc(C=CC(=O)O)cc1` [p-MCA, p-methoxycinnamic acid], the minimum inhibitory concentration (MIC) in the series with Bacillus subtilis is 40 µg/mL (≈ 224 µM); in the series with E. coli, 30 µg/mL (≈ 168 µM); in the series with E. coli (ref 29 (Nakazono et al., 2006)) it was 50 µg/mL (≈ 281 µM); with Micrococcus luteus it was 80 µg/mL (≈ 449 µM); with Salmonella enteritidis, 60 µg/mL (≈ 337 µM); in the series with S. aureus it was 40 µg/mL (≈ 224 µM). Moreover, the MIC in the series on S. aureus (ref 29 (Nakazono et al., 2006)) was 60 µg/mL (≈ 337 µM). Besides, the “Cytotoxicity (doses with cytotoxic effects)” value in the series on Vero cells [2] is “only 200 μg/mL p-MCA induced cytotoxicity; also recorded: only at 200 μg/mL (p < 0.05)”; in the series on HUVEC cells it was “cytotoxicity in these cells at concentrations of 200, 100, and 50 μg/mL; also recorded: cytotoxic effects in HUVEC cells at doses of 200, 100, and 50 μg/mL”. Further, the “Cell morphology by SEM” value with COLR-Ab4 isolate was “certain morphological changes in bacterial cells”.
